Tested on: tight junctions (duodenum biopsies)
Assay: Ussing chamber: HRP permeability of duodenum suction biopsies from children suffering from microvillus inclusion disease
Assay type: cell-based, human
Conditions: after adding 4.2 g to the luminal compartment
Excerpt: Suction biopsies of the duodenum were taken from two children suffering from microvillus inclusion disease.

## carboxydextran [70 kD carboxydextran]
  HRP in the paracellular spaces or tight junctions by electron microscopy: No further HRP could be detected

— patent US6686341B1, “Nutritional compositions which contain slightly negatively charged, non-digestible polysaccharides and use thereof for reducing transport through tight junctions” (N.V. Nutricia, priority 1999, dated 2004)
